# In PMC8287724, “Reducing Auditory Nerve Excitability by Acute Antagonism of Ca^2+-Permeable AMPA Receptors” (Frontiers in Synaptic Neuroscience, 2021):
# Key:
# [1] = test system: cochlear afferent synapses; parameters: method as in earlier work; details: ref Robertson, 1983; Puel et al., 1998; Furman et al., 2013; Hickman et al., 2020; cited from earlier work
# [2] = test system: ANF postsynaptic terminals; parameters: method as in Puel et al., 1994; details: chemical lesion, basal cochlear turn perfusion ref Puel et al., 1994; cited from earlier work
# [3] = test system: ribbon synapses and ANF dendrites in the inner spiral plexus; assay: Apical cochlear perfusion of kainic acid, immunohistofluorescence and confocal microscopy; type: in vivo, guinea pig; details: 2 mM in artificial perilymph, apical perfusion of scala tympani
# Protocol: Following cardiac perfusion of 4% PFA in 0.1 M phosphate buffer and cervical dislocation, the temporal bone was immediately harvested, and the cochlea was isolated. Each cochlea was post-fixed for 20 min at 4°C in a dish with 4% PFA, where a small fenestration was made in the round window, oval window, and the apex of each cochlea to gently flush with 1 mL of fixative. Each cochlea was then decalcified in 10% EDTA at room temperature for 6 h, exchanging EDTA every 2 h. The decalcified outer bone was removed to reveal the underlying cochlear spiral. Small pieces of cochlear turns were placed in buffer overnight at 4°C in Triton X-100 with donkey serum. […]
# The method of apical intracochlear drug delivery has previously been well-detailed (Lichtenhan et al., [2016a]). […] Response waveforms were recorded immediately prior to apical drug perfusion to establish a baseline, throughout perfusion which took 6 min, and then immediately after perfusion, from a round window electrode. […]
compound,measurement,setting,value
O=C(O)c1cc(=O)c2ccccc2[nH]1 [kynurenic acid],effect on synapse loss and osmotic damage after synaptopathic noise exposure,[1],blocked
O=c1[nH]c2cc([N+](=O)[O-])c([N+](=O)[O-])cc2[nH]c1=O [DNQX],effect of pre-perfusion on ANF terminal swelling,[2],prevented
NC(CCCP(=O)(O)O)C(=O)O [D-AP5],effect of pre-perfusion on ANF terminal swelling,[2],not
"C=C(C)[C@H]1CN[C@H](C(=O)O)[C@H]1CC(=O)O [KA, kainic acid]",effect on innervation and ribbon synapses,[3],void of innervation in the ISP and ribbon synapse disintegration
